Test results reported in publication PMC4927298, “Olfactory channels associated with the Drosophila maxillary palp mediate short- and long-range attraction” (eLife, 2016).

What was measured:
Or85d (pb3B) = target: T1, Or85d (pb3B) (Drosophila melanogaster, UniProt Q9VHQ2); assay: single sensillum recording (SSR), dose-response; conditions: native pb3B neuron, agonist; odor dilution
T1 construct: native receptor in pb3B maxillary palp neuron of wild-type flies; with Odorant receptor coreceptor
T1 sequence (Q9VHQ2 1-412): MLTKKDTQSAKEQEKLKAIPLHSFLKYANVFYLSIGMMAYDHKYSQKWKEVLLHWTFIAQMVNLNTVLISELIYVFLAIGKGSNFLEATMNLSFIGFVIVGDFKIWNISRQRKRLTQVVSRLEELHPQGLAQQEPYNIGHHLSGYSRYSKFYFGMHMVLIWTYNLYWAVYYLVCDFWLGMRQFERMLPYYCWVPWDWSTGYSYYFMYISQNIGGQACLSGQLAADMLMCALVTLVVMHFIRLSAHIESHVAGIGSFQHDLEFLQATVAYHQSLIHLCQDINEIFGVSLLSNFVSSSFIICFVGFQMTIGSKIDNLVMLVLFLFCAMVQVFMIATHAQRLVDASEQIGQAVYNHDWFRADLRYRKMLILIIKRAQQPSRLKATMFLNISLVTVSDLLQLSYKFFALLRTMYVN
T1 sequence (Q9VNB5 1-486 partner): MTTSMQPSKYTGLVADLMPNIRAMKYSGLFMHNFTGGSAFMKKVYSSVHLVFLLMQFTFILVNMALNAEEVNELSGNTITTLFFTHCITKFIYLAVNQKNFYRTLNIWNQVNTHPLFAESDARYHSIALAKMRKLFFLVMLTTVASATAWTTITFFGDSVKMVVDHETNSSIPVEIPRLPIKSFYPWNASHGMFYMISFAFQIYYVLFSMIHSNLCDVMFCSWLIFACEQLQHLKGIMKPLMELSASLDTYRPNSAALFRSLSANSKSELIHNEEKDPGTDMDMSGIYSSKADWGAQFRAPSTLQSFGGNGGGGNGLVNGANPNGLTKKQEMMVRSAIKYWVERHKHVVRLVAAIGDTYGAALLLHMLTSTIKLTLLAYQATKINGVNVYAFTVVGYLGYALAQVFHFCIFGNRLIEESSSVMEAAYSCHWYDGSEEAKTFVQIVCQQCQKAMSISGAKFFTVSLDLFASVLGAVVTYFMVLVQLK
From the text: single sensillum recording (SSR), dose-response on Or85d (pb3B)

Or71a (pb1B) = target: T2, Or71a (pb1B) (Drosophila melanogaster, UniProt Q9VUK5); assay: single sensillum recording (SSR), dose-response; conditions: native pb1B neuron, agonist; odor dilution
T2 construct: native receptor in pb1B maxillary palp neuron of wild-type flies; with Odorant receptor coreceptor
T2 sequence (Q9VUK5 1-378): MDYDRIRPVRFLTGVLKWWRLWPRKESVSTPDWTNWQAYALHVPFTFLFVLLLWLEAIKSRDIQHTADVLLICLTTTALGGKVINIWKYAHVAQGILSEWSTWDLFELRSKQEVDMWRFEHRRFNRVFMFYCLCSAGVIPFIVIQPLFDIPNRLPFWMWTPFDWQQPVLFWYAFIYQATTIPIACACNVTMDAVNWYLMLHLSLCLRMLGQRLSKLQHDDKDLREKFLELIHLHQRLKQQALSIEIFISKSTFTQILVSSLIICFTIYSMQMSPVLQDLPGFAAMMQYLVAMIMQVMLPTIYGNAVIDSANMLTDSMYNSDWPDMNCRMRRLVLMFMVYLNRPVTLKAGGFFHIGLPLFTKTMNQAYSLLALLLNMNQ
T2 sequence (Q9VNB5 1-486 partner): T1 sequence (Q9VNB5 1-486 partner)
From the text: single sensillum recording (SSR), dose-response on Or71a (pb1B)

Or42a (pb1A) = target: T3, Or42a (pb1A) (Drosophila melanogaster, UniProt Q9V9I2); assay: single sensillum recording (SSR), dose-response; conditions: native pb1A neuron, agonist; odor dilution
T3 construct: native receptor in pb1A maxillary palp neuron of wild-type flies; neuron-receptor match not tested by expression; with Odorant receptor coreceptor
T3 sequence (Q9V9I2 1-406): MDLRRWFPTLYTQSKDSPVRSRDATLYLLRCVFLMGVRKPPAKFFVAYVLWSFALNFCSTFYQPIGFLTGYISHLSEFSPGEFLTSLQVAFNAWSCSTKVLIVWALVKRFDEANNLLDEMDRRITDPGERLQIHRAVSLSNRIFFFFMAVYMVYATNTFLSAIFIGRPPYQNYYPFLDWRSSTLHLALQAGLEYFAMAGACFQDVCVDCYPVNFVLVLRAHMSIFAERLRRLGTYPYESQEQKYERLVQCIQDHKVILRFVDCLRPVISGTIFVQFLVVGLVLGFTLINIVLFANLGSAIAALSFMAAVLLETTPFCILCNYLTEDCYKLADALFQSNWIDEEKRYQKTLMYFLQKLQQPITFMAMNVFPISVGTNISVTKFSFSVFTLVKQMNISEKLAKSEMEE
T3 sequence (Q9VNB5 1-486 partner): T1 sequence (Q9VNB5 1-486 partner)
From the text: single sensillum recording (SSR), dose-response on Or42a (pb1A)

Or59c (pb3A) = target: T4, Or59c (pb3A) (Drosophila melanogaster, UniProt Q9W1P7); assay: single sensillum recording (SSR), dose-response; conditions: native pb3A neuron, agonist; odor dilution
T4 construct: native receptor in pb3A maxillary palp neuron of wild-type flies; with Odorant receptor coreceptor
T4 sequence (Q9W1P7 1-411): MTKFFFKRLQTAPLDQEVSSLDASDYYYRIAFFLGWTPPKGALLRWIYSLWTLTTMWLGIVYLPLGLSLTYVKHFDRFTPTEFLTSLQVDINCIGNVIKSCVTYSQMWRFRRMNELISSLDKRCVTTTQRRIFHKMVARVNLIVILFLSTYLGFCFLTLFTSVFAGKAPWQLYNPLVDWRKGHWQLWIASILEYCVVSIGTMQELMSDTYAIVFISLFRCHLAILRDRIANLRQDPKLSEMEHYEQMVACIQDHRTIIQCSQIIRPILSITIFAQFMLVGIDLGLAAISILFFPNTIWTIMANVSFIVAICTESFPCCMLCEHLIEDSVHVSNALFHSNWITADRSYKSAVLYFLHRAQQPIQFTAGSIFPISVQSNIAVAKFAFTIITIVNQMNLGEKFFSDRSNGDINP
T4 sequence (Q9VNB5 1-486 partner): T1 sequence (Q9VNB5 1-486 partner)
From the text: single sensillum recording (SSR), dose-response on Or59c (pb3A)

Or85a = target: T5, Or85a (Drosophila melanogaster, UniProt Q9VHS4); assay: SSR and GC-SSR, dose-response; conditions: native antennal ab2B neuron, agonist; odor dilution
T5 construct: native receptor in antennal ab2B neuron of wild-type flies; with Odorant receptor coreceptor
T5 sequence (Q9VHS4 1-397): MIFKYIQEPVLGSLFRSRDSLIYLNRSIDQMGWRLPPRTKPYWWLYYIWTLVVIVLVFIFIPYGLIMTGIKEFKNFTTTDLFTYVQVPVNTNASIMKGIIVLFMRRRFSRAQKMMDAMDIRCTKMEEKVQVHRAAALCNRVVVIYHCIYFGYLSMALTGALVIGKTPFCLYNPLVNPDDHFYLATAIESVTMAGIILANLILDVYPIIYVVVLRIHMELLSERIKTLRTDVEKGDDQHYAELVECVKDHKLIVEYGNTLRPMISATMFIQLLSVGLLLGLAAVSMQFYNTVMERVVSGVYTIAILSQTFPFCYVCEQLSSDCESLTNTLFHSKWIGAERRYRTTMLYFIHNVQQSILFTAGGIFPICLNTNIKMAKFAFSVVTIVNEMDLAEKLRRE
T5 sequence (Q9VNB5 1-486 partner): T1 sequence (Q9VNB5 1-486 partner)

Or67a = target: T6, Or67a (Drosophila melanogaster, UniProt Q9VT08); assay: SSR and GC-SSR, dose-response; conditions: native antennal neuron, agonist; odor dilution
T6 construct: native receptor in antennal neuron (ab10) of wild-type flies; with Odorant receptor coreceptor
T6 sequence (Q9VT08 1-407): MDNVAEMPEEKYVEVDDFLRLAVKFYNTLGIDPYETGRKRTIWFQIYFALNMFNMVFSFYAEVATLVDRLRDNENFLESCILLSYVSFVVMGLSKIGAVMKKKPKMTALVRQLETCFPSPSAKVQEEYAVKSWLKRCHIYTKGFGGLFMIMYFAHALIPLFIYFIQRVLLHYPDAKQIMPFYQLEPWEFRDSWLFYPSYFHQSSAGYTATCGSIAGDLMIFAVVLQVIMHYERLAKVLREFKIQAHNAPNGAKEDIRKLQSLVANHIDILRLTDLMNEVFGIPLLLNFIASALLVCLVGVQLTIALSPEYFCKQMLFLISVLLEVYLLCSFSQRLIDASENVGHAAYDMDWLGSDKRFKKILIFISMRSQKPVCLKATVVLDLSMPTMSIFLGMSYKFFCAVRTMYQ
T6 sequence (Q9VNB5 1-486 partner): T1 sequence (Q9VNB5 1-486 partner)

Or46a (pb2B) = target: T7, Or46a (pb2B) (Drosophila melanogaster, UniProt P81919); assay: single sensillum recording (SSR), dose-response; conditions: native pb2B neuron, agonist; odor dilution
T7 construct: native receptor in pb2B maxillary palp neuron of wild-type flies; with Odorant receptor coreceptor
T7 sequence (P81919 1-381): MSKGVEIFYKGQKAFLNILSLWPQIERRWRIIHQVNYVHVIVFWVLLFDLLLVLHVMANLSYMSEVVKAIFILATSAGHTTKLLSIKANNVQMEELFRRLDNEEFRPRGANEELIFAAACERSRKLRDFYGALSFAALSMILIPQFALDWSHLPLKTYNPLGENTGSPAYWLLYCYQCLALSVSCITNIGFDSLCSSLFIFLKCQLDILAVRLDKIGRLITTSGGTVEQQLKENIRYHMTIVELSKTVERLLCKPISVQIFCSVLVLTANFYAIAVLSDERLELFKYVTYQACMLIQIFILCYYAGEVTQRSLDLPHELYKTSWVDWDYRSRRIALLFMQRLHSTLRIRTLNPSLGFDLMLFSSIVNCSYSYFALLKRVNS
T7 sequence (Q9VNB5 1-486 partner): T1 sequence (Q9VNB5 1-486 partner)
From the text: single sensillum recording (SSR), dose-response on Or46a (pb2B)

With CC(=O)OCCc1ccccc1 [2-Phenethyl acetate] the Detection threshold (Or85d (pb3B)) was 10^-7 dilution.
With CCc1ccc(O)c(OC)c1 [4-ethylguaiacol] the Detection threshold (Or71a (pb1B)) was 10^-7 dilution.
With C=CCC(=O)CC [5-hexen-3-one] the Detection threshold (Or42a (pb1A)) was 10^-7 dilution.
CCCCOC(=O)CC(C)O (stereo not drawn) [Butyl 3-hydroxy butyrate] was tested, and the Detection threshold (Or59c (pb3A)) was 10^-4 dilution and the Detection threshold (Or85a) was 10^-5 dilution.
C=CCc1ccc(OC)c(OC)c1 [Methyleugenol] was tested, and the Detection threshold (Or71a (pb1B)) was 10^-7 dilution.
In the case of CCC(=O)OCCc1ccccc1 [Phenethyl propionate], the Detection threshold (Or85d (pb3B)) is reported as 10^-7 dilution and the Detection threshold (Or67a) is reported as 10^-5 dilution.
With Oc1ccccc1 [Phenol] the Detection threshold (Or46a (pb2B)) was 10^-7 dilution.
